Measured values as given in PMC11790914, “Chemogenomics for steroid hormone receptors (NR3)” (Communications Chemistry, 2025).
Where “and” joins values, the source holds several entries; their conditions need not be identical. Identical values can stand only once. Like-named read-outs stand apart in the source and are kept apart here.

What was measured:
CSNK1D = molecular target: T1, CSNK1D (Homo sapiens, UniProt P48730); assay: Liability panel screening by DSF: CSNK1D; assay type: binding; conditions: read-out: Mean ΔTM CSNK1D
T1 construct: made in house
T1 sequence (P48730 whole entry, species assumed): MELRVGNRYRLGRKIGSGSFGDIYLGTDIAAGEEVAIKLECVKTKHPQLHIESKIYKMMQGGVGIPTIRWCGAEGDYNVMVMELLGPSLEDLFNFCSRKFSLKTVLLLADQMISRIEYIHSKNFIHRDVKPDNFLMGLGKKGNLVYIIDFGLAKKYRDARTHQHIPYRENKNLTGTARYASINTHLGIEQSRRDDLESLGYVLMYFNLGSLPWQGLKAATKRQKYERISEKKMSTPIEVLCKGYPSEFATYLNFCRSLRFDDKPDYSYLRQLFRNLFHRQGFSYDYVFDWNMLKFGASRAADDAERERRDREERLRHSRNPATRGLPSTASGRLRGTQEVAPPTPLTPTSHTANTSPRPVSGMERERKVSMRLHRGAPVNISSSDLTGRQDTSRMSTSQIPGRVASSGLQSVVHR
Protocol: (§1) Reference ligands are listed in the methods section.
(§2) In-house produced recombinantly expressed proteins[62] of the liability panel targets were diluted in a buffer containing 10 mM HEPES (pH 7.5) and 500 mM NaCl to a concentration of 2 µM. SYPRO Orange (Invitrogen, Carlsbad, California, USA; #S6650) as a fluorescence probe was added at a 1:1000 dilution to the proteins. […] Temperature-dependent unfolding profiles were measured on a QuantStudio™ 5 real-time PCR machine (Thermo Fisher Scientific, Waltham, Massachusetts, USA; #A28140). […] The temperature was increased 3 °C per minute to a maximum temperature of 85 °C. Experiments were run as technical duplicates. […] Data were analyzed with the internal Thermal Shift Software (version 1.4, Thermo Fisher Scientific) using the Boltzmann equitation to determine the inflection point of the transition curve. Differences in melting temperature are given as ∆Tm in K. […]
(§3) scanning fluorimetry (DSF).
(§4) a concentration of 20 µM.

HEK293T cells [1] = assay: Cytotoxicity: apoptosis induction (caspase-3/7 DEVD fluorogenic DNA dye); conditions: HEK293T, 24 h, apoptotic cell count normalized to 0.1% DMSO, single replicates
TRIM24 = molecular target: T2, TRIM24 (Homo sapiens, UniProt O15164); assay: Liability panel screening by DSF: TRIM24; assay type: binding; conditions: read-out: Mean ΔTM TRIM24
T2 construct: This panel comprised ten highly ligandable kinases and bromodomains; made in house
T2 sequence (O15164 899-1004 limits assumed): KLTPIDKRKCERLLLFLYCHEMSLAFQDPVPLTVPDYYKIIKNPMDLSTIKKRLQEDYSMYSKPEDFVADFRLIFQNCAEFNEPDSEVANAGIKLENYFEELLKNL
Protocol: as §1, §2, §3, §4

BRPF1 = molecular target: T3, BRPF1 (Homo sapiens, UniProt P55201); assay: Liability panel screening by DSF: BRPF1; assay type: binding; conditions: read-out: Mean ΔTM BRPF1
T3 construct: This panel comprised ten highly ligandable kinases and bromodomains; made in house
T3 sequence (P55201 628-732 limits assumed): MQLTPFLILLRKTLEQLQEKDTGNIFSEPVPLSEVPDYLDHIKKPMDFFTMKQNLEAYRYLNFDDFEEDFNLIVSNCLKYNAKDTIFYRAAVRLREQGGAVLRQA
Protocol: as §1, §2, §3, §4

ABL1 = molecular target: T4, ABL1 (Homo sapiens, UniProt P00519); assay: Liability panel screening by DSF: ABL1; assay type: binding; conditions: read-out: Mean ΔTM ABL1
T4 construct: made in house
T4 sequence (P00519 whole entry, species assumed): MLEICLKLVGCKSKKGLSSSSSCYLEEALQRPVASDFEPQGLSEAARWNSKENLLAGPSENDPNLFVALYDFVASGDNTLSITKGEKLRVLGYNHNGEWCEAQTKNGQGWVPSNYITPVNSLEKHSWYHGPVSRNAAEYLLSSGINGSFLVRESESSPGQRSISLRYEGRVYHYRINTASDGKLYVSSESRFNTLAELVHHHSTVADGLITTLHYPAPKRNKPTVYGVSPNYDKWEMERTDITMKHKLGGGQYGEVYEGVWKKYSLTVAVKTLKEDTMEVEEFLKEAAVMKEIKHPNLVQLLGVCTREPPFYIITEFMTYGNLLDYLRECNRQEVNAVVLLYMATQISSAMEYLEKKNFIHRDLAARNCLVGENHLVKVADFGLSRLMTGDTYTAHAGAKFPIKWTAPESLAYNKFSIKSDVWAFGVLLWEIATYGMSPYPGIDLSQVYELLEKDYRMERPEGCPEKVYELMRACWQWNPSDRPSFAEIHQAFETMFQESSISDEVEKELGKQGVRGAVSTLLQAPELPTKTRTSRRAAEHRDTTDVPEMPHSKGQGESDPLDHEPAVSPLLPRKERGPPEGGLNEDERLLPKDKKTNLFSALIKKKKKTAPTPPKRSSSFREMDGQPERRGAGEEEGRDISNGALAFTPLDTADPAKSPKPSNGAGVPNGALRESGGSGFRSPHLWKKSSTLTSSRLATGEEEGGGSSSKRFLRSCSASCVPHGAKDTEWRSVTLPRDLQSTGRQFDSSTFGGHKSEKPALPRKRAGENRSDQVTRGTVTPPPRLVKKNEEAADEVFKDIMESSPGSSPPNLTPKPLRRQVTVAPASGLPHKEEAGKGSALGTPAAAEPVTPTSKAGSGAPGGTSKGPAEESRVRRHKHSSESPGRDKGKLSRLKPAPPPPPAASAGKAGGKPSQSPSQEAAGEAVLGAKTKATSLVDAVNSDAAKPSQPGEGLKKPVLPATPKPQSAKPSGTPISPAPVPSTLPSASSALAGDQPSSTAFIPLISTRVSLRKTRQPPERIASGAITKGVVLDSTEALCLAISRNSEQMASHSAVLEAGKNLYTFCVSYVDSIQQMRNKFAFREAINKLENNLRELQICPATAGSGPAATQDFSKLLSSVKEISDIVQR
Protocol: as §1, §2, §3, §4

HEK293T cells [2] = assay: Cytotoxicity: growth-rate (change in confluence over 24 h); conditions: normalized to 0.1% DMSO control, single replicates (n=1...)
Protocol: Cells were incubated with the test compounds at the indicated concentrations solubilized with 0.1% DMSO for 24 h. Growth-rate was determined based on the change in confluence over 24 h normalized to the change in confluence of cells treated with the 0.1% DMSO control (n = 10). Metabolic activity was determined with a water-soluble tetrazolium-8 (WST-8) assay (n = 8) after 24 h treatment. Apoptotic cells were detected with a fluorogenic DNA dye coupled to the caspase-3/7 recognition sequence (DEVD) after 24 h treatment and the apoptotic cell count was normalized to 0.1% DMSO treated cells (n = 6).
HEK293T cells (German Collection of Microorganisms and Cell Culture GmbH, DSMZ; #ACC305) were cultured in DMEM high glucose, supplemented with 10% fetal calf serum (FCS), sodium pyruvate (1 mM), penicillin (100 µ/mL) and streptomycin (100 µg/mL) at 37 °C and 5% (v/v) CO2, and seeded in pre-coated (10 µg/mL collagen G solution (Merck KgaA; #L7213) for 30 min at 37 °C) 96-well plates (2 × 10^5 cells per well). After 24 h, the cells were treated with the respective NR3 CG compound candidate at the recommended concentration, bexarotene (100 µM) or doxorubicin (30 µM) as positive controls in DMEM high glucose supplemented with 0.1% FCS, penicillin (100 µ/mL), streptomycin (100 µg/mL) and 0.1% DMSO, or 0.1% DMSO alone as an untreated control. Each sample was prepared in at least four biologically independent replicates. […] Thereafter, the medium was aspirated and the cells were incubated for 3 h with 90 µL DMEM high glucose supplemented with 0.2% FCS, penicillin (100 µ/mL) and streptomycin (100 µg/mL) and additionally containing 10 µL Cell Counting Kit 8 solution (CCK-8; MedChemExpress, Monmouth Junction, New York, USA; #HY-K0301), and absorbance was measured at 1 h, 2 h and 3 h of incubation at 450 nm on a Tecan Spark Cyto to assess metabolic activity of the cells. Before drug administration, after the first medium exchange, 24 h after drug administration, and after fluorescence imaging cell confluence was assessed using the Tecan Spark Cyto, to account for changes in cell confluence due to drug administration and cell handling. Compound effects on cell confluence, apoptosis, metabolic activity and necrosis were normalized to the vehicle control of each biological replicate individually.

[3] = tested on: NF-κB activity in HEK293 NF-κB reporter cells; assay: NF-kB activity assay (GFP reporter, ionomycin/PMA); assay type: cell-based; conditions: for Mean NFκB response: n=3
Protocol: Fig. 6 Application of the NR3 CG set.
After 24 h, cells were incubated with the test compounds solubilized with 0.1% DMSO in the same medium without puromycin. After 4 h incubation, ionomycin (100 ng/mL) and phorbol-12-myristat-13-acetate (PMA, 10 ng/mL) was added, and the cells were imaged for confluence and GFP expression every 90 min. over 24 h using a Tecan SPARK Cyto (Tecan). The number of GFP expressing cells was normalized to confluence in each sample. Each sample was repeated in three biologically independent experiments.

MAPK1 = molecular target: T5, MAPK1 (Homo sapiens, UniProt P28482); assay: Liability panel screening by DSF: MAPK1; assay type: binding; conditions: read-out: Mean ΔTM MAPK1
T5 construct: made in house
T5 sequence (P28482 whole entry, species assumed): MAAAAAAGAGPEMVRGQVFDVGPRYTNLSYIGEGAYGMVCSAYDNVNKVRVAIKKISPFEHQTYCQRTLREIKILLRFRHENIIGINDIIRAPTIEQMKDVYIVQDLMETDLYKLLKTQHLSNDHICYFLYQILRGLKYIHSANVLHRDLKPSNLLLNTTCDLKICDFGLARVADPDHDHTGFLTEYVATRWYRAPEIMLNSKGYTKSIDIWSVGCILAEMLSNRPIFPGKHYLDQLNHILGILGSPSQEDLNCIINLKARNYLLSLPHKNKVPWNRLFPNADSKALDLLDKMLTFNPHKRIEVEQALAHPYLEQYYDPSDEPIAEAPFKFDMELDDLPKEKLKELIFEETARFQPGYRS
Protocol: as §1, §2, §3, §4

HEK293T cells [4] = assay: Cytotoxicity: metabolic activity (WST-8 / CCK-8 assay); conditions: HEK293T, 24 h, WST-8, normalized to 0.1% DMSO, single replicates
HEK293T cells [5] = assay: Cytotoxicity: necrosis induction (red fluorescent dye for permeable plasma membranes); assay type: cell-based; conditions: 24 h, necrotic cell count normalized to 0.1% DMSO, single replicates;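 also: compounds applied in DMEM high glucose with 0.1% FCS and 0.1% DMSO, necrotic HEK293T cells counted by red staining of cells whose plasma membranes had become permeable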
BRD4 = molecular target: T6, BRD4 (Homo sapiens, UniProt O60885); assay: Liability panel screening by DSF: BRD4; assay type: binding; conditions: read-out: Mean ΔTM BRD4
T6 construct: This panel comprised ten highly ligandable kinases and bromodomains; made in house
Protocol: as §1, §2, §3, §4

AURKA = molecular target: T7, AURKA (Homo sapiens, UniProt O14965); assay: Liability panel screening by DSF: AURKA; assay type: binding; conditions: read-out: Mean ΔTM AURKA
T7 construct: made in house
T7 sequence (O14965 1-403): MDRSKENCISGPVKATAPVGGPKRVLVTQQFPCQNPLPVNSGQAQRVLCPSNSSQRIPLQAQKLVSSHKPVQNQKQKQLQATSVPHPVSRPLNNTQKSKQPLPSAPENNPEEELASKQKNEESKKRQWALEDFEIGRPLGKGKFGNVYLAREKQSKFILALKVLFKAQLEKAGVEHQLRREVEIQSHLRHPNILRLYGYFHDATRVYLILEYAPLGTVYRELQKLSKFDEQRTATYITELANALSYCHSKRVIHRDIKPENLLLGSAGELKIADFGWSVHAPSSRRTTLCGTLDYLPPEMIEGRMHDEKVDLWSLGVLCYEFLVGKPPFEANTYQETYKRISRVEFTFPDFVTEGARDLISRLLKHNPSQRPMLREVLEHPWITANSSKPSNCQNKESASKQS
Protocol: as §1, §2, §3, §4

[6] = tested on: ATF6 activity in Hela ATF6 reporter cells; assay: Endoplasmic reticulum stress assay (ATF6 Renilla luciferase reporter, tunicamycin); assay type: cell-based; conditions: for ATF6 activity (tunicamycin-induced endoplasmic reticulum stress): Hela ATF6 reporter cells, tunicamycin 100 ng/mL, 18 h, compounds at recommended concentrations, n = 5
Protocol: After 24 h, cells were incubated with the test compounds solubilized with 0.1% DMSO in the same medium without puromycin. After 4 h incubation, tunicamycin (100 ng/mL) was added. After another 18 h incubation, cells were assayed for renilla luminescence using DualGlo reagent (Promega) on a Tecan SPARK Cyto (Tecan). Test samples were normalized to the 0.1% DMSO control. Each sample was repeated in five biologically independent experiments.

CDK2 = molecular target: T8, CDK2 (Homo sapiens, UniProt P24941); assay: Liability panel screening by DSF: CDK2; assay type: binding; conditions: read-out: Mean ΔTM CDK2
T8 construct: made in house
Protocol: as §1, §2, §3, §4

GSK3B = molecular target: T9, GSK3B (Homo sapiens, UniProt P49841); assay: Liability panel screening by DSF: GSK3B; assay type: binding; conditions: read-out: Mean ΔTM GSK3B
T9 construct: made in house
T9 sequence (P49841 whole entry, species assumed): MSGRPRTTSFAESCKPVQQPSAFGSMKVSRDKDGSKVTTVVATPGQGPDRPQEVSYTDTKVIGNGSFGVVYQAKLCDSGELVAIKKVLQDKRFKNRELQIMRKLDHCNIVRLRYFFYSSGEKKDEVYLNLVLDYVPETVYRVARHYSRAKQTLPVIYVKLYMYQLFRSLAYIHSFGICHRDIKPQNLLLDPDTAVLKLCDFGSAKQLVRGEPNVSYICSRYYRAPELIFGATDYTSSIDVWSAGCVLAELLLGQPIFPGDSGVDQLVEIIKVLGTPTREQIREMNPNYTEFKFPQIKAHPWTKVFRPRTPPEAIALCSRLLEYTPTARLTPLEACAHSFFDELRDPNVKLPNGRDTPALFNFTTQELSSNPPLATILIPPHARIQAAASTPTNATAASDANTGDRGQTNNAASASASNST

FGFR3 = molecular target: T10, FGFR3 (Homo sapiens, UniProt P22607); assay: Liability panel screening by DSF: FGFR3; assay type: binding; conditions: read-out: Mean ΔTM FGFR3
T10 construct: made in house
T10 sequence (P22607 23-806, species assumed): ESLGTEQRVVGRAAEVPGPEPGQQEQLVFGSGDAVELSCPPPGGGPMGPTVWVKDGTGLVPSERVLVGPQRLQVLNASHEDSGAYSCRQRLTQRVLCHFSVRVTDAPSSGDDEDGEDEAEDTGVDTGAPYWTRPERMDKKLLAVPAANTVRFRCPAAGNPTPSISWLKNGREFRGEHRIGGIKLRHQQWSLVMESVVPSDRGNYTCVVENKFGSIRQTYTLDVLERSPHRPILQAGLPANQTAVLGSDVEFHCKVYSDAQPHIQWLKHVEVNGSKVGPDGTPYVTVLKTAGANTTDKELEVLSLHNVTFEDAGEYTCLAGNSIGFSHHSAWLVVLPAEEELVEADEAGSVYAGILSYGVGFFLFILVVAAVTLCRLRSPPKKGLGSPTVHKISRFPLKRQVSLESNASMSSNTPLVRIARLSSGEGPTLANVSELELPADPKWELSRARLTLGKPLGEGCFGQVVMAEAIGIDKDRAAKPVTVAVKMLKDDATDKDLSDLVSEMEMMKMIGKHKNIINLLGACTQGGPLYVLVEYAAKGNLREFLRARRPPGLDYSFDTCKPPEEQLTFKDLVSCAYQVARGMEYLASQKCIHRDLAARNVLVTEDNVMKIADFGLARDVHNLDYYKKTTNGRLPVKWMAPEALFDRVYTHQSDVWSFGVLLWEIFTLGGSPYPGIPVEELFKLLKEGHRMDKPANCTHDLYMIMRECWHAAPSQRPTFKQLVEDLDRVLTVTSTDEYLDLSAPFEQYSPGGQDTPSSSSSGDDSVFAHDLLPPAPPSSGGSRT
Protocol: as §1, §2, §3, §4

SMILES: CN(C)CCOc1ccc(/C(=C(/CCCO)c2ccccc2)c2ccc(O)cc2)cc1 [GSK5182]
- ΔTm at 20 µM (CSNK1D; DSF, 20 µM, n=2): -0.68 °C
- Apoptosis induction [AI] (HEK293T cells [1]; 10 µM): 0.95 and 1.15 and 0.71 and 1.22 (2×) and 1.40
- ΔTm at 20 µM (TRIM24; DSF, 20 µM, n=2): -0.25 °C
- ΔTm at 20 µM (BRPF1; DSF, 20 µM, n=2): -1.74 °C
- ΔTm at 20 µM (ABL1; DSF, 20 µM, n=2): 0.43 °C
- Growth rate [GR] (HEK293T cells [2]; 10 µM): 0.52 and 3.08 and 0.59 and 0.82 and 0.68 and 0.29 and 0.42 and 1.20 and 1.31 and 8.43
- Mean NFκB response ([3]; 10 µM, 1,5 h): 4124.00 GFP+-cells/confluence ∙ 1000
- Mean NFκB response ([3]; 10 µM, 4,5 h): 4518.85 GFP+-cells/confluence ∙ 1000
- Mean NFκB response ([3]; 10 µM, 7,5 h): 8291.63 GFP+-cells/confluence ∙ 1000
- Mean NFκB response ([3]; 10 µM, 10,5 h): 18033.90 GFP+-cells/confluence ∙ 1000
- Mean NFκB response ([3]; 10 µM, 13,5 h): 26386.99 GFP+-cells/confluence ∙ 1000
- Mean NFκB response ([3]; 10 µM, 16,6 h): 32458.21 GFP+-cells/confluence ∙ 1000
- Mean NFκB response ([3]; 10 µM, 19,5 h): 36483.54 GFP+-cells/confluence ∙ 1000
- Mean NFκB response ([3]; 10 µM, 22,5 h): 40081.60 GFP+-cells/confluence ∙ 1000
- Mean NFκB response ([3]; 10 µM, 3 h): 4121.32 GFP+-cells/confluence ∙ 1000
- Mean NFκB response ([3]; 10 µM, 6 h): 5330.81 GFP+-cells/confluence ∙ 1000
- Mean NFκB response ([3]; 10 µM, 9 h): 13339.51 GFP+-cells/confluence ∙ 1000
- Mean NFκB response ([3]; 10 µM, 12 h): 22208.27 GFP+-cells/confluence ∙ 1000
- Mean NFκB response ([3]; 10 µM, 15 h): 29794.15 GFP+-cells/confluence ∙ 1000
- Mean NFκB response ([3]; 10 µM, 18 h): 34711.23 GFP+-cells/confluence ∙ 1000
- Mean NFκB response ([3]; 10 µM, 21 h): 38030.00 GFP+-cells/confluence ∙ 1000
- Mean NFκB response ([3]; 10 µM, 24 h): 41021.29 GFP+-cells/confluence ∙ 1000
- ΔTm at 20 µM (MAPK1; DSF, 20 µM, n=2): 0.14 °C
- Metabolic activity [MA] (HEK293T cells [4]; 10 µM): 0.99 and 0.91 (2×) and 0.85 and 1.04 and 1.01 and 0.95 and 0.93
- Necrosis induction [NI] (HEK293T cells [5]; 10 µM): 0.56 and 0.11 and 0.30 and 0.25
- ΔTm at 20 µM (BRD4; DSF, 20 µM, n=2): -2.92 °C
- ΔTm at 20 µM (AURKA; DSF, 20 µM, n=2): -0.17 °C
- ATF6 activity (tunicamycin-induced endoplasmic reticulum stress) [6]: lacked this effect
- activity at 10 µM ([6]; Homo sapiens, HeLa, 10 µM, single replicates n=1 to n=5, read-out: ER stress [rel. ATF6 activity]): 88%
- ΔTm at 20 µM (CDK2; DSF, 20 µM, n=2): 0.68 °C
- ΔTm at 20 µM (GSK3B; DSF, 20 µM, n=2): -1.96 °C
- ΔTm at 20 µM (FGFR3; DSF, 20 µM, n=2): 0.62 °C

SMILES: O=S(=O)(Cc1ccccc1)Nc1ccc(-c2ccc3c(cnn3-c3ccc(F)cc3)c2)c(C(F)(F)F)c1 [GSK9027]
- ΔTm at 20 µM (CSNK1D): -1.92 °C
- Apoptosis induction [AI] (HEK293T cells [1]; 1 µM): 0.65 and 1.04 and 0.83 and 0.94 and 0.36 and 0.86
- ΔTm at 20 µM (TRIM24): 1.36 °C
- ΔTm at 20 µM (BRPF1): 1.21 °C
- ΔTm at 20 µM (ABL1): 1.8 °C
- Growth rate [GR] (HEK293T cells [2]; 1 µM): 0.54 and 0.80 and 0.72 and 0.98 and 0.70 and 0.66 and 0.84 and 1.89 and 2.05 and 4.10
- Mean NFκB response ([3]; 1 µM, 1,5 h): 2917.80 GFP+-cells/confluence ∙ 1000
- Mean NFκB response ([3]; 1 µM, 4,5 h): 3437.70 GFP+-cells/confluence ∙ 1000
- Mean NFκB response ([3]; 1 µM, 7,5 h): 4957.90 GFP+-cells/confluence ∙ 1000
- Mean NFκB response ([3]; 1 µM, 10,5 h): 8098.89 GFP+-cells/confluence ∙ 1000
- Mean NFκB response ([3]; 1 µM, 13,5 h): 11113.03 GFP+-cells/confluence ∙ 1000
- Mean NFκB response ([3]; 1 µM, 16,6 h): 13521.21 GFP+-cells/confluence ∙ 1000
- Mean NFκB response ([3]; 1 µM, 19,5 h): 14898.72 GFP+-cells/confluence ∙ 1000
- Mean NFκB response ([3]; 1 µM, 22,5 h): 15985.14 GFP+-cells/confluence ∙ 1000
- Mean NFκB response ([3]; 1 µM, 3 h): 2869.62 GFP+-cells/confluence ∙ 1000
- Mean NFκB response ([3]; 1 µM, 6 h): 4105.89 GFP+-cells/confluence ∙ 1000
- Mean NFκB response ([3]; 1 µM, 9 h): 6294.49 GFP+-cells/confluence ∙ 1000
- Mean NFκB response ([3]; 1 µM, 12 h): 9593.56 GFP+-cells/confluence ∙ 1000
- Mean NFκB response ([3]; 1 µM, 15 h): 12593.25 GFP+-cells/confluence ∙ 1000
- Mean NFκB response ([3]; 1 µM, 18 h): 14186.97 GFP+-cells/confluence ∙ 1000
- Mean NFκB response ([3]; 1 µM, 21 h): 15313.70 GFP+-cells/confluence ∙ 1000
- Mean NFκB response ([3]; 1 µM, 24 h): 16630.14 GFP+-cells/confluence ∙ 1000
- NF-κB activity (inflammatory response to ionomycin/PMA) ([3]; HEK293 NF-κB reporter cells, compounds at recommended concentrations, imaged over 24 h, n = 3): consistently delayed and strongly diminished NF-κB activity
- ΔTm at 20 µM (MAPK1): -2.07 °C
- Metabolic activity [MA] (HEK293T cells [4]; 1 µM): 1.03 and 1.01 (3×) and 0.96 and 1.00 and 1.18 and 1.15
- Necrosis induction [NI] (HEK293T cells [5]; 1 µM): 0.93 and 0.78 and 0.76 and 1.05
- ΔTm at 20 µM (BRD4): 1.58 °C
- ΔTm at 20 µM (AURKA): 1.2 °C
- ATF6 activity (tunicamycin-induced endoplasmic reticulum stress) [6]: Consistently weaker ATF6 activity
- activity at 1 µM ([6]; Homo sapiens, HeLa, 1 µM, single replicates n=1 to n=5, read-out: ER stress [rel. ATF6 activity]): 76%
- ΔTm at 20 µM (CDK2): 0.1 °C
- ΔTm at 20 µM (GSK3B): 1.24 °C
- ΔTm at 20 µM (FGFR3): -0.29 °C
